# Key:
# Test in all cases: biochemical
# Design in all cases: KINOMEscan competition binding panel (Eurofins DiscoverX), single concentration, percent inhibition
# Details in all cases: read-out: 15 at 1 µM % inhibition
# [1] = target: T1, ARK5 (Homo sapiens, UniProt O60285)
# T1 construct: gene NUAK1
# Procedure, shortened: (§1)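 KINOMEscan selectivity screen; >400 human kinases; compound at 1 µM, single concentration.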
# [2] = target: AURKB (Homo sapiens, UniProt Q96GD4)
# Procedure, shortened: as §1
# [3] = target: AURKC (Homo sapiens, UniProt Q9UQB9)
# Procedure, shortened: as §1
# [4] = target: BRAF(V600E) (Homo sapiens, UniProt P15056, V600E)
# Procedure, shortened: as §1
# [5] = target: CDK8 (Homo sapiens, UniProt P49336)
# CDK8, sequence (P49336 whole entry): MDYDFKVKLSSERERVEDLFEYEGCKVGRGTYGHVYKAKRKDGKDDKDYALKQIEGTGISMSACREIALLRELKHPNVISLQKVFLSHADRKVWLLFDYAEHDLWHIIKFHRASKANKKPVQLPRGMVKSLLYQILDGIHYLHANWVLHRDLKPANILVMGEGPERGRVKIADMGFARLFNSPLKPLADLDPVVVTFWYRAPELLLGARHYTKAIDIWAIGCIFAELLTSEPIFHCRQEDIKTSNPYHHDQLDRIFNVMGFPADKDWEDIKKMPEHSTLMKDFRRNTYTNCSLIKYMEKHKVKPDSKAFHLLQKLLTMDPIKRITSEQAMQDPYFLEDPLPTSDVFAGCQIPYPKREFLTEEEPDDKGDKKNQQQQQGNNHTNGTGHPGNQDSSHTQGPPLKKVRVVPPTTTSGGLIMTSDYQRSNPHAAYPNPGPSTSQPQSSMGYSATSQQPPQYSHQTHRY
# Procedure, shortened: as §1
# [6] = target: CDKL3 (Homo sapiens, UniProt Q8IVW4)
# Procedure, shortened: as §1
# [7] = target: EGFR(G719S) (Homo sapiens, UniProt P00533, G719S)
# Procedure, shortened: as §1
# [8] = target: EPHB4 (Homo sapiens, UniProt P54760)
# EPHB4, sequence (P54760 whole entry): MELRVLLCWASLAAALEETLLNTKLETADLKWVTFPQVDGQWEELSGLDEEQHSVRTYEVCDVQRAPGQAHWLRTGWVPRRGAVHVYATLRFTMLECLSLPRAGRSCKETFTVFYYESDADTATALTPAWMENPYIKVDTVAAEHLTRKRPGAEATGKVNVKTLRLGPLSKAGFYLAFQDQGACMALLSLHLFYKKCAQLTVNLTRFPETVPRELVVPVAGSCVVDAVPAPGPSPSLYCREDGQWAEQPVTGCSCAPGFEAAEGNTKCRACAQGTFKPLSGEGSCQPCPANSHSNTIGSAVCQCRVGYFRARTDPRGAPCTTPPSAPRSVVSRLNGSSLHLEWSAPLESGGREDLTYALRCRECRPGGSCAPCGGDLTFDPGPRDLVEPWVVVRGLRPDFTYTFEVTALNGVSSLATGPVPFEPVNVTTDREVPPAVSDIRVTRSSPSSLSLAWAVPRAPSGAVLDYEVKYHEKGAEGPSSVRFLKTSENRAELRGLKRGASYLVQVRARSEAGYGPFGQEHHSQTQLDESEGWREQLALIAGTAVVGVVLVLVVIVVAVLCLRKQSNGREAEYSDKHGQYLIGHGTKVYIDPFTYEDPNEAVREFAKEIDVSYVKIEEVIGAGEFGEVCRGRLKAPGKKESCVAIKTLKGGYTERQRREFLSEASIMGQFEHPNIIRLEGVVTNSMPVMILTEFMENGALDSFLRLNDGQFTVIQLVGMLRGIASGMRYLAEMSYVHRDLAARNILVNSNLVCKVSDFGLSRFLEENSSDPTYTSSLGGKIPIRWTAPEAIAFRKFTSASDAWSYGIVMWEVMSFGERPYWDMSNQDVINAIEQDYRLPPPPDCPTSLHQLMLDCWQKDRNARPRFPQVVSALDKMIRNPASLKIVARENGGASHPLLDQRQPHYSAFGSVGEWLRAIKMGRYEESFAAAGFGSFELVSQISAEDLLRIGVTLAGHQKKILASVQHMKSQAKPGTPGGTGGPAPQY
# Procedure, shortened: as §1
# [9] = target: ERBB4 (Homo sapiens, UniProt Q15303)
# Procedure, shortened: as §1
# [10] = target: FLT3-autoinhibited (Homo sapiens, UniProt P36888)
# Procedure, shortened: as §1
# [11] = target: GRK3 (Homo sapiens, UniProt P35626)
# GRK3, sequence (P35626 whole entry): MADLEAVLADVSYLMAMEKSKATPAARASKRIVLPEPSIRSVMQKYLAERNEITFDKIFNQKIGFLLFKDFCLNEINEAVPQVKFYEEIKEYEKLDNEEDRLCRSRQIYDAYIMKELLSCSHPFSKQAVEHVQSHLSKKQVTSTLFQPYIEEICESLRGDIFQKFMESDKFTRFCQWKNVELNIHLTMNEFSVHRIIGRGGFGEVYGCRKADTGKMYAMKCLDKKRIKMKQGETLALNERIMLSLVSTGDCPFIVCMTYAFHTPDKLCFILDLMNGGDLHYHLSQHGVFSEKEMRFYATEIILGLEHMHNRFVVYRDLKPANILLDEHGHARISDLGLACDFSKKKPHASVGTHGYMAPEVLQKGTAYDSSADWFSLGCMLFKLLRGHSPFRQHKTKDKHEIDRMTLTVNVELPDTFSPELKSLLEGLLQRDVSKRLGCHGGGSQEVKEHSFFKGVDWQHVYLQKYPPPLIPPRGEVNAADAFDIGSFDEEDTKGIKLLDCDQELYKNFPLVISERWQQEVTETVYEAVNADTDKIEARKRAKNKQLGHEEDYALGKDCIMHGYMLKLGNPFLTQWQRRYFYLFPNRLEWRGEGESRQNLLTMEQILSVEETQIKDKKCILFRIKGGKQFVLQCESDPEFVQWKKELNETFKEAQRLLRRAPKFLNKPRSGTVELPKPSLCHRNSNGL
# Procedure, shortened: as §1
# [12] = target: LRRK2(G2019S) (Homo sapiens, UniProt Q5S007, G2019S)
# Procedure, shortened: as §1
# [13] = target: T2, MEK2 (Homo sapiens, UniProt P36507)
# T2 construct: gene MAP2K2
# Procedure, shortened: as §1
# [14] = target: T3, MLK1 (Homo sapiens, UniProt P80192)
# T3 construct: gene MAP3K9
# Procedure, shortened: as §1
# [15] = target: T4, MST3 (Homo sapiens, UniProt Q9Y6E0)
# T4 construct: gene STK24
# T4 sequence (Q9Y6E0 whole entry): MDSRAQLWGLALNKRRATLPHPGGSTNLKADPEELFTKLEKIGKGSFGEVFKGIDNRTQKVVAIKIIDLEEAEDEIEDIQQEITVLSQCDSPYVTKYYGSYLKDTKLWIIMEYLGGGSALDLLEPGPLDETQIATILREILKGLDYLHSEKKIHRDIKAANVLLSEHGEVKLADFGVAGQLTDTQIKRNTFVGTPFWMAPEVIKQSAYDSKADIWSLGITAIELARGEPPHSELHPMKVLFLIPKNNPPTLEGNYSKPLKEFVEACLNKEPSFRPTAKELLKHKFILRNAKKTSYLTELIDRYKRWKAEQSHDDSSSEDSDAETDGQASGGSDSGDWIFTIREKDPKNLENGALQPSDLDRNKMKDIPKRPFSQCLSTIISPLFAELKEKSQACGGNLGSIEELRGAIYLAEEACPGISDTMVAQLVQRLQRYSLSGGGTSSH
# Procedure, shortened: as §1
# [16] = target: T5, MST4 (Homo sapiens, UniProt Q9P289)
# T5 construct: gene STK26
# T5 sequence (Q9P289 whole entry): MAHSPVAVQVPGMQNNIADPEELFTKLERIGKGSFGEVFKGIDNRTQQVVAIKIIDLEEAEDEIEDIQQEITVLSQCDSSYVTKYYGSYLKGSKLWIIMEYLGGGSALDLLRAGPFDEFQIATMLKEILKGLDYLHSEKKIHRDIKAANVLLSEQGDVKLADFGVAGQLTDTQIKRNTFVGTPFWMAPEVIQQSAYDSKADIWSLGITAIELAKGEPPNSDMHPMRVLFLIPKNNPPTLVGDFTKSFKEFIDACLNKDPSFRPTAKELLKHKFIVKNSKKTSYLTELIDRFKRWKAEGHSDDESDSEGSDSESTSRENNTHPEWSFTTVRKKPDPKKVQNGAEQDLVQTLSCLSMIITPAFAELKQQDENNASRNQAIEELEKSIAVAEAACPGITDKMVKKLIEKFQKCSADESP
# Procedure, shortened: as §1
# [17] = target: NEK2 (Homo sapiens, UniProt P51955)
# Procedure, shortened: as §1
# [18] = target: NEK9 (Homo sapiens, UniProt Q8TD19)
# Procedure, shortened: as §1
# [19] = target: RAF1 (Homo sapiens, UniProt P04049)
# Procedure, shortened: as §1
# [20] = target: T6, SGK (Homo sapiens, UniProt O00141)
# T6 construct: gene SGK1
# T6 sequence (O00141 whole entry): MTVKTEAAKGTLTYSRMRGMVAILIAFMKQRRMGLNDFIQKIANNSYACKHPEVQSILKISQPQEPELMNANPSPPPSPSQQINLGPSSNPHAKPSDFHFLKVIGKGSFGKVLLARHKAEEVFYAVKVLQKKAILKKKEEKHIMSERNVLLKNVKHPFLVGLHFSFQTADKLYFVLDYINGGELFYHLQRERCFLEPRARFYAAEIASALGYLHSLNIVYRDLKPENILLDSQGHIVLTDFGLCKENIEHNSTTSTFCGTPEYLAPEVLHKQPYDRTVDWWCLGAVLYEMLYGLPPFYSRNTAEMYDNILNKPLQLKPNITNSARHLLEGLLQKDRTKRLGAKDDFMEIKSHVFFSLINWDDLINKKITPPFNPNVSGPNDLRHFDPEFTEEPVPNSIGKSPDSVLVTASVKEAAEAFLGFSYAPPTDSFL
# Procedure, shortened: as §1
# [21] = target: SLK (Homo sapiens, UniProt Q9H2G2)
# SLK, sequence (Q9H2G2 whole entry): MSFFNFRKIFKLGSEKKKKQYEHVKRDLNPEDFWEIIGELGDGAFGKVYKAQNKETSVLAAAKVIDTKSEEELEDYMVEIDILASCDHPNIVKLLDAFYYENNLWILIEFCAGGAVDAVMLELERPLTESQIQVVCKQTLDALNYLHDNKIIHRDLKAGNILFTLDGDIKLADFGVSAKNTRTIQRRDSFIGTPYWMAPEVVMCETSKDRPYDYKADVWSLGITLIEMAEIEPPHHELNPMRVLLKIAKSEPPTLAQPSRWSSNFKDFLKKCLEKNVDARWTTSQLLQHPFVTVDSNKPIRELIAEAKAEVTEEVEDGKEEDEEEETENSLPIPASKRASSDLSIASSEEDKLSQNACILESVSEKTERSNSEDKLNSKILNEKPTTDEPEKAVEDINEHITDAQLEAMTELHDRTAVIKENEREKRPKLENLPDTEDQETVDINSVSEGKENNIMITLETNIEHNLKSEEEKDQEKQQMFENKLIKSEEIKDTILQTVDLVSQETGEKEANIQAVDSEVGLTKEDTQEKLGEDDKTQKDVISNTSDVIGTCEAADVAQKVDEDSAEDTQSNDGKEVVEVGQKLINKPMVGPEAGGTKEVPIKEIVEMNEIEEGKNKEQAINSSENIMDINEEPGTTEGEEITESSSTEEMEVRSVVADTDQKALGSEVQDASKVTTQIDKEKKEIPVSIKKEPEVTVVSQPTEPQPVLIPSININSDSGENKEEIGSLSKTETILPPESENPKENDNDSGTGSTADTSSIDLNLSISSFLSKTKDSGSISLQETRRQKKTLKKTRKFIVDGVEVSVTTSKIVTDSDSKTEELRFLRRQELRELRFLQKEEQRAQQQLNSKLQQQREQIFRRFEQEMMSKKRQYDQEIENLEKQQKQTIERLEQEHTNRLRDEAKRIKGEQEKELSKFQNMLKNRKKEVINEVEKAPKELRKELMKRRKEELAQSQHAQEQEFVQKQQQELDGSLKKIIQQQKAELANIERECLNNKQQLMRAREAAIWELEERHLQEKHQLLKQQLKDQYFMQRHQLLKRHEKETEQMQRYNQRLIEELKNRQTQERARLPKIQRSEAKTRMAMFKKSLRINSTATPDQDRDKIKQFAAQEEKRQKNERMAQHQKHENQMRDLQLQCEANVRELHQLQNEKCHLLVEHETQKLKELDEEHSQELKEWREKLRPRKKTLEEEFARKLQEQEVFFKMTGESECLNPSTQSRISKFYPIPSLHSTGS
# Procedure, shortened: as §1
# [22] = target: SRPK1 (Homo sapiens, UniProt Q96SB4)
# Procedure, shortened: as §1
# [23] = target: TAOK1 (Homo sapiens, UniProt Q7L7X3)
# Procedure, shortened: as §1
# [24] = target: T7, TYK2(JH1domain-catalytic) (Homo sapiens, UniProt P29597)
# T7 construct: JH1domain-catalytic
# Procedure, shortened: as §1
# AURKB, sequence (Q96GD4 whole entry): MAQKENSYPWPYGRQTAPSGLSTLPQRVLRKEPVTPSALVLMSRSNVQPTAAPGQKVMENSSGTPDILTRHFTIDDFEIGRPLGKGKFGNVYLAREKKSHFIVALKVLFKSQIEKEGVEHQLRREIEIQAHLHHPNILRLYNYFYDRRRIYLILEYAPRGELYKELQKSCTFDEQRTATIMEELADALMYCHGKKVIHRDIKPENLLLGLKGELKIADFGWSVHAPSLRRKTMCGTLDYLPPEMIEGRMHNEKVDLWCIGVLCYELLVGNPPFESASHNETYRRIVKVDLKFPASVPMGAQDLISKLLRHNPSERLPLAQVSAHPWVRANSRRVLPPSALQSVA
smiles,measurement,setting,value
"CNS(=O)(=O)c1ccc(N(C)C)c(Nc2nc(C)nc3cc(OC)c(OC)cc23)c1 [compound 15, 3-((6,7-dimethoxy-2-methylquinazolin-4-yl)amino)-4-(dimethylamino)-N-methylbenzenesulfonamide]",inhibition at 1 µM,[1],0%
same,inhibition at 1 µM,[2],3%
same,inhibition at 1 µM,[3],0%
same,inhibition at 1 µM,[4],24%
same,inhibition at 1 µM,[5],0%
same,inhibition at 1 µM,[6],23%
same,inhibition at 1 µM,[7],0%
same,inhibition at 1 µM,[8],0%
same,inhibition at 1 µM,[9],0%
same,inhibition at 1 µM,[10],0%
same,inhibition at 1 µM,[11],32%
same,inhibition at 1 µM,[12],8%
same,inhibition at 1 µM,[13],10%
same,inhibition at 1 µM,[14],0%
same,inhibition at 1 µM,[15],0%
same,inhibition at 1 µM,[16],13%
same,inhibition at 1 µM,[17],1%
same,inhibition at 1 µM,[18],0%
same,inhibition at 1 µM,[19],0%
same,inhibition at 1 µM,[20],39%
same,inhibition at 1 µM,[21],0%
same,inhibition at 1 µM,[22],0%
same,inhibition at 1 µM,[23],15%
same,inhibition at 1 µM,[24],0%
